Species: Rattus norvegicus
Assay: DrugMatrix - Regimen: Daily Repeat
Format: toxicity, organism-based, Sprague-Dawley
Parameters: regimen Daily Repeat, gender Male, age 6-8 weeks
Conditions: in vivo, po, 900 mg/kg, route oral GAVAGE, dose level High, […]; for ABSOLUTE BASOPHIL / ABSOLUTE EOSINOPHIL / ABSOLUTE LYMPHOCYTE / ABSOLUTE MONOCYTE / BASOPHIL / EOSINOPHIL / ERYTHROCYTE COUNT / HEMATOCRIT / HEMOGLOBIN / LEUKOCYTE COUNT / LYMPHOCYTE / MEAN CORPUSCULAR HEMOGLOBIN / MEAN CORPUSCULAR HEMOGLOBIN CONCENTRATION / MEAN CORPUSCULAR VOLUME / MONOCYTE / NEUTROPHIL / PLATELET COUNT: tissue Blood
[1] = 72 h, tissue Plasma, time 3 day
[2] = 120 h, tissue Plasma, time 5 day

## Clc1ccc(Cl)cc1 [1,4-DICHLOROBENZENE]
72 h, time 3 day
  ABSOLUTE BASOPHIL: 33.3 cells/µL
  ABSOLUTE EOSINOPHIL: 40 cells/µL
  ABSOLUTE LYMPHOCYTE: 9740 cells/µL
  ABSOLUTE MONOCYTE: 310 cells/µL
  BASOPHIL: 0.27%
  EOSINOPHIL: 0.33%
  ERYTHROCYTE COUNT: 7.33 x10E6/uL
  HEMATOCRIT: 47.67%
  HEMOGLOBIN: 15.3 G/DL
  LEUKOCYTE COUNT: 11.53 x10E3/uL
  LYMPHOCYTE: 85.37%
  MEAN CORPUSCULAR HEMOGLOBIN: 20.83 pg
  MEAN CORPUSCULAR HEMOGLOBIN CONCENTRATION: 32.07 G/DL
  MEAN CORPUSCULAR VOLUME: 65 fL
  MONOCYTE: 2.5%
  NEUTROPHIL: 11%
  PLATELET COUNT: 1237 x10E3/uL
[1]
  ALANINE AMINOTRANSFERASE: 80.33 u/L
  ALBUMIN: 3.47 G/DL
  ALKALINE PHOSPHATASE: 437.33 u/L
  ASPARTATE AMINOTRANSFERASE: 129.33 u/L
  BLOOD UREA NITROGEN: 18.67 mg/dL
  CARBON DIOXIDE: 40 mmol/L
  CHLORIDE: 106.67 MEQ/L
  CHOLESTEROL: 71 mg/dL
  CREATINE PHOSPHOKINASE: 391 u/L
  CREATININE: 0.63 mg/dL
  GLUCOSE: 167.33 mg/dL
  LIPASE: 199.33 u/L
  PHOSPHORUS: 9.67 mg/dL
  POTASSIUM: 5.7 MEQ/L
  SODIUM: 148.67 MEQ/L
  TOTAL BILIRUBIN: 0.83 mg/dL
  TOTAL PROTEIN: 5.53 G/DL
  URIC ACID: 0.77 mg/dL
120 h, time 5 day
  ABSOLUTE BASOPHIL: 30 cells/µL
  ABSOLUTE EOSINOPHIL: 80 cells/µL
  ABSOLUTE LYMPHOCYTE: 9070 cells/µL
  ABSOLUTE MONOCYTE: 300 cells/µL
  BASOPHIL: 0.3%
  EOSINOPHIL: 0.73%
  ERYTHROCYTE COUNT: 7.06 x10E6/uL
  HEMATOCRIT: 45.4%
  HEMOGLOBIN: 14.13 G/DL
  LEUKOCYTE COUNT: 11.69 x10E3/uL
  LYMPHOCYTE: 77.37%
  MEAN CORPUSCULAR HEMOGLOBIN: 20.03 pg
  MEAN CORPUSCULAR HEMOGLOBIN CONCENTRATION: 31.1 G/DL
  MEAN CORPUSCULAR VOLUME: 64.53 fL
  MONOCYTE: 2.57%
  NEUTROPHIL: 18.23%
  PLATELET COUNT: 1234.33 x10E3/uL
[2]
  ALANINE AMINOTRANSFERASE: 88.67 u/L
  ALBUMIN: 3.83 G/DL
  ALKALINE PHOSPHATASE: 433.33 u/L
  ASPARTATE AMINOTRANSFERASE: 100.33 u/L
  BLOOD UREA NITROGEN: 16 mg/dL
  CARBON DIOXIDE: 42.33 mmol/L
  CHLORIDE: 105.33 MEQ/L
  CHOLESTEROL: 119 mg/dL
  CREATINE PHOSPHOKINASE: 376.67 u/L
  CREATININE: 0.5 mg/dL
  GLUCOSE: 166.67 mg/dL
  LIPASE: 96 u/L
  PHOSPHORUS: 9.13 mg/dL
  POTASSIUM: 5.73 MEQ/L
  SODIUM: 148.67 MEQ/L
  TOTAL BILIRUBIN: 0.6 mg/dL
  TOTAL PROTEIN: 6.27 G/DL
  URIC ACID: 0.57 mg/dL
Time 14 day
  ABSOLUTE BASOPHIL: 52 cells/µL
  ABSOLUTE EOSINOPHIL: 38 cells/µL
  ABSOLUTE LYMPHOCYTE: 10600 cells/µL
  ABSOLUTE MONOCYTE: 320 cells/µL
  BASOPHIL: 0.36%
  EOSINOPHIL: 0.28%
  ERYTHROCYTE COUNT: 7.26 x10E6/uL
  HEMATOCRIT: 44.36%
  HEMOGLOBIN: 14.58 G/DL
  LEUKOCYTE COUNT: 14.34 x10E3/uL
  LYMPHOCYTE: 74.48%
  MEAN CORPUSCULAR HEMOGLOBIN: 20.04 pg
  MEAN CORPUSCULAR HEMOGLOBIN CONCENTRATION: 32.82 G/DL
  MEAN CORPUSCULAR VOLUME: 61.16 fL
  MONOCYTE: 2.18%
  NEUTROPHIL: 22.12%
  PLATELET COUNT: 1242.2 x10E3/uL
Tissue Plasma, time 14 day
  ALANINE AMINOTRANSFERASE: 68 u/L
  ALBUMIN: 4.02 G/DL
  ALKALINE PHOSPHATASE: 529.2 u/L
  ASPARTATE AMINOTRANSFERASE: 89.8 u/L
  BLOOD UREA NITROGEN: 15.8 mg/dL
  CARBON DIOXIDE: 43.6 mmol/L
  CHLORIDE: 102.2 MEQ/L
  CHOLESTEROL: 110.2 mg/dL
  CREATINE PHOSPHOKINASE: 309 u/L
  CREATININE: 0.78 mg/dL
  GLUCOSE: 134.2 mg/dL
  LACTATE DEHYDROGENASE: 217.6 u/L
  LIPASE: 10 u/L
  PHOSPHORUS: 9.34 mg/dL
  POTASSIUM: 5.94 MEQ/L
  SODIUM: 147.8 MEQ/L
  TOTAL BILIRUBIN: 0.44 mg/dL
  TOTAL PROTEIN: 6.7 G/DL
  URIC ACID: 0.52 mg/dL

From ChEMBL document CHEMBL3885881, “DrugMatrix”
